Measured values taken from patent US8334261B2, “Osteopenia animal model” (Oriental Yeast Co., Ltd., priority 2006, dated 2012).

What was measured:
Type in all cases: in vivo, mouse
[1] = system: 7-week-old female C57BL/6N mice; experiment: Bone healing after GST-RANKL administration
Method: GST-RANKL was intraperitoneally administered twice to groups of 7-week-old female C57BL/6N mice at 1 mg/kg every 24 hours. The time point 24 hours after the 2nd administration was designated as “week 0.” The serum and femur were collected from each mouse separately at weeks 0, 1, 4, 6, and 8 and compared with those collected from mice subjected to PBS administration in a similar manner. Regarding bone metabolism markers, TRAP-5b, calcium (Ca), and alkaline phosphatase (ALP) in the serum were measured. Each femur was subjected to bone density measurement with pQCT and image analysis with micro CT.
The bone density was measured at points 0.6 mm, 0.8 mm, 1.0 mm from the distal growth plate on the proximal side of the femur with the use of pQCT.

[2] = system: GST-RANKL-administered 7-week-old female C57BL/6N mice; experiment: Evaluation of an osteoporosis therapeutic agent (risedronate) with GST-RANKL-administered mice
Method: GST-RANKL (426 nmol) was intraperitoneally administered 3 times to groups of 7-week-old female C57BL/6N mice (5 to 6 individuals each) every 24 hours. An osteoporosis therapeutic agent (risedronate) was subcutaneously administered at 0.01 mg/kg every 24 hours from 3 days before GST-RANKL administration. Administration of the agent was continued to the end of the experimentation every 24 hours. The serum, femur, and tibia were collected from each mouse 1.5 hours after the 3rd administration of GST-RANKL. Bone resorption parameters (calcium, CTx, and TRAP-5b) and osteogenesis parameters (osteocalcin and ALP) in the serum were measured. The femur bone density was determined with the use of pQCT and micro CT. Measurement values were compared with those for a control group by the Dunnett method for testing.

[3] = system: 7-week-old female C57BL/6N mice; experiment: RANKL administration test (213, 426, 852 nmol GST-RANKL)
Method: GST-RANKL was separately administered 3 times via an intraperitoneal route to groups of 7-week-old female C57BL/6N mice (10 individuals each) at doses of 213 nmol, 426 nmol, and 852 nmol every 24 hours. Exsanguination was performed 1.5 hours after the 3rd administration. A group to which PBS was administered in the same manner as above was used as a control group for comparison. 213 nmol, 426 nmol and 852 nmol of GST-RANKL correspond to 10 μg, 20 μg and 40 μg, respectively.
(§1) The exsanguinated blood was subjected to measurement of serum bone resorption parameters (calcium, CTx, TRAP-5b) and serum osteogenesis parameters (osteocalcin and alkaline phosphatase (ALP)). Calcium was measured by the OCPC method (WAKO, 272-21801). CTx (Nordic Bioscience Diagnostics), TRAP-5b (IDS Ltd, SB-TR103), and osteocalcin (Biomedical Technologies Inc.) were measured by ELISA. ALP was measured by the Bessey-Lowry method (WAKO, 274-04401).
The femur and the tibia were collected from each exsanguinated mouse. Regarding the femur, the cancellous bone was subjected to bone density measurement with the use of pQCT at points 0.6 mm, 0.8 mm, and 1.0 mm from the distal growth plate on the proximal side. Measurement values were compared with those for a control group by the Dunnett method for testing.

[4] = system: 7-week-old female C57BL/6N mice; experiment: GST-RANKL administration test (57 and 426 nmol)
Method: GST-RANKL was intraperitoneally administered 3 times to groups of 7-week-old female C57BL/6N mice (10 individuals each) at doses of 57 nmol (low dose) and 426 nmol (high dose) every 24 hours. Exsanguination was performed 1.5 hours after the 3rd administration. A group to which PBS was administered in the same manner as above was used as a control group for comparison.
as §1
The following organs were collected from each exsanguinated mouse: the femur, the tibia, the cerebrum, the lungs, the heart, the liver, the thymus, the spleen, the kidneys, and the skin. Naturally occurring lesions were observed by HE staining of the cerebrum, the lungs, the heart, the liver, the thymus, the spleen, the kidneys, and the skin.
Regarding the femur, the cancellous bone was subjected to bone density measurement with the use of pQCT at points 0.6 mm, 0.8 mm, and 1.0 mm from the distal growth plate on the proximal side at the distal end of the femur. Regarding the tibia, tibia sections were prepared for bone morphology measurement. Measurement values were compared with those for a control group by the Dunnett method for testing.

[5] = system: GST-RANKL-administered, ovariectomized 7-week-old female C57BL/6N mice; experiment: Drug evaluation with a selective estrogen receptor modulator (raloxifene) in GST-RANKL/OVX mice
Source text: In addition, PBS (i.p.) and ultrapure water (p.o.) were used as control substances for comparison with GST-RANKL and raloxifene, respectively, upon administration.
The serum collected from each mouse was subjected to measurement of serum bone resorption markers (Ca and TRAP-5b) and an osteogenesis marker (ALP). Each femur was subjected to measurement of the bone density, the bone mineral content, and the cortical bone thickness with pQCT at points 0.6, 0.8, 1.0 mm from the distal growth plate on the proximal side. In addition, image analysis was carried out with micro CT.

[6] = GST-RANKL 426 nmol i.p. 3 times
[7] = high dose 426 nmol i.p. 3 times
[8] = GST-RANKL administration+OVX group, 1.0 mm

**Q.** With “GST-RANKL: fused protein of Glutathione S-transferase with human RANKL residues 140-317, expressed in Escherichia coli, 47.0 kDa” as the substance, how does the “serum Ca concentration” value ([1]; 1 mg/kg i.p. twice, weeks 0 to 8) read?
**A.** no significant difference

**Q.** What about the “femur bone density decreased to, vs PBS group” value ([1]; 0.6 mm, week 0) of the same substance?
**A.** 5%

**Q.** And the “femur bone density decreased to, vs PBS group” value ([1]; 0.6 mm, week 1)?
**A.** 7%

**Q.** And the “femur bone density decreased to, vs PBS group” value ([1]; 0.6 mm, week 4)?
**A.** 9%

**Q.** And the “femur bone density decreased to, vs PBS group” value ([1]; 0.8 mm, week 0)?
**A.** 10%

**Q.** What about the “femur bone density decreased to, vs PBS group” value ([1]; 0.8 mm, week 1) of the same substance?
**A.** 11%

**Q.** What about the “femur bone density decreased to, vs PBS group” value ([1]; 0.8 mm, week 4) of the same substance?
**A.** 15%

**Q.** What about the “femur bone density decreased to, vs PBS group” value ([1]; 1.0 mm, week 0) of the same substance?
**A.** 16%

**Q.** And the “femur bone density decreased to, vs PBS group” value ([1]; 1.0 mm, week 1)?
**A.** 13%

**Q.** And the “femur bone density decreased to, vs PBS group” value ([1]; 1.0 mm, week 4)?
**A.** 11%

**Q.** And the “serum TRAP-5b concentration, fold as high as PBS group” value ([1]; 24 hours after RANKL administration (0 week))?
**A.** approximately 3 fold

**Q.** What about the “femur bone density vs PBS group” value ([1]; week 6) of the same substance?
**A.** returned to a level comparable to that for the PBS administration group

**Q.** What about the “serum ALP concentration, fold as high” value ([1]; weeks 0 and 1) of the same substance?
**A.** approximately 1.4 fold

**Q.** And the “serum alkaline phosphatase concentration vs control” value ([2]; GST-RANKL 426 nmol)?
**A.** did not change

**Q.** What about the “serum osteocalcin concentration vs control” value ([2]; GST-RANKL 426 nmol) of the same substance?
**A.** did not change

**Q.** What about the “serum CTx concentration, fold as high as control” value [2, 6] of the same substance?
**A.** approximately 1.4 fold

**Q.** What about the “serum TRAP-5b concentration, fold as high as control” value [2, 6] of the same substance?
**A.** approximately 1.5 fold

**Q.** What about the “femur bone density decrease vs control” value ([2]; GST-RANKL 426 nmol, at 0.6 mm, 0.8 mm and 1.0 mm) of the same substance?
**A.** approximately 20%

**Q.** What about the “serum CTx concentration” value ([3]; 213 nmol) of the same substance?
**A.** No significant increases

**Q.** What about the “serum TRAP-5b concentration” value ([3]; 213 nmol) of the same substance?
**A.** No significant increases

**Q.** What about the serum calcium concentration ([3]; 213 nmol i.p. 3 times, p<0.05) of the same substance?
**A.** significantly increased

**Q.** And the “femur bone density decrease (pQCT)” value ([3]; 213 nmol, 0.6 mm)?
**A.** 11%

**Q.** And the “femur bone density decrease (pQCT)” value ([3]; 213 nmol, 0.8 mm)?
**A.** 23%

**Q.** What about the “femur bone density decrease (pQCT)” value ([3]; 213 nmol, 1.0 mm) of the same substance?
**A.** 23%

**Q.** What about the “femur bone density decrease (pQCT)” value ([3]; 426 nmol, 0.6 mm) of the same substance?
**A.** 19%

**Q.** What about the “femur bone density decrease (pQCT)” value ([3]; 426 nmol, 0.8 mm) of the same substance?
**A.** 29%

**Q.** What about the “femur bone density decrease (pQCT)” value ([3]; 426 nmol, 1.0 mm) of the same substance?
**A.** 31%

**Q.** What about the “serum CTx concentration” value ([3]; 426 nmol, p<0.01) of the same substance?
**A.** significant increases

**Q.** What about the “serum TRAP-5b concentration” value ([3]; 426 nmol, p<0.01) of the same substance?
**A.** significant increases

**Q.** And the serum calcium concentration ([3]; 426 nmol, p<0.01)?
**A.** obviously increased

**Q.** And the “femur bone density decrease (pQCT)” value ([3]; 852 nmol, 0.6 mm)?
**A.** 30%

**Q.** And the “femur bone density decrease (pQCT)” value ([3]; 852 nmol, 0.8 mm)?
**A.** 42%

**Q.** And the “femur bone density decrease (pQCT)” value ([3]; 852 nmol, 1.0 mm)?
**A.** 44%

**Q.** And the “serum CTx concentration” value ([3]; 852 nmol, p<0.01)?
**A.** significant increases

**Q.** What about the “serum TRAP-5b concentration” value ([3]; 852 nmol, p<0.01) of the same substance?
**A.** significant increases

**Q.** And the serum calcium concentration ([3]; 852 nmol, p<0.01)?
**A.** obviously increased

**Q.** And the “image analysis with micro CT” value ([3]; 213 to 852 nmol)?
**A.** dose-dependent decreases in the bone density

**Q.** What about the “abnormal findings and lesions in organs (HE staining)” value ([4]; 57 and 426 nmol, cerebrum, lungs, heart, liver, thymus, spleen, kidneys, skin) of the same substance?
**A.** not observed

**Q.** And the “femur bone morphology with micro CT” value ([4]; high dose 426 nmol)?
**A.** significant bone decreases

**Q.** What about the “serum ALP concentration” value ([4]; high dose 426 nmol) of the same substance?
**A.** did not vary

**Q.** What about the serum osteocalcin concentration ([4]; high dose 426 nmol) of the same substance?
**A.** did not vary

**Q.** And the “tibial osteoblast surface area” value ([4]; high dose 426 nmol)?
**A.** significant osteoblast surface area increase

**Q.** What about the tibial osteoclast number ([4]; high dose 426 nmol) of the same substance?
**A.** increased

**Q.** What about the “tibial trabecular number decrease” value ([4]; high dose 426 nmol) of the same substance?
**A.** approximately 50%

**Q.** What about the “tibial unit bone mass decrease” value ([4]; high dose 426 nmol) of the same substance?
**A.** approximately 50%

**Q.** And the “serum CTx concentration, fold as high as control” value [4, 7]?
**A.** approximately 1.5 fold

**Q.** What about the “serum TRAP-5b concentration, fold as high as control” value [4, 7] of the same substance?
**A.** approximately 1.5 fold

**Q.** And the “serum Ca concentration, fold as high as control” value ([4]; high dose 426 nmol i.p. 3 times every 24 hours, 1.5 hours after 3rd administration)?
**A.** approximately 1.4 fold

**Q.** What about the “femur bone density decrease (pQCT)” value ([4]; high dose 426 nmol, 0.6 mm from distal growth plate) of the same substance?
**A.** 10%

**Q.** What about the “femur bone density decrease (pQCT)” value ([4]; high dose 426 nmol, 0.8 mm) of the same substance?
**A.** 23%

**Q.** And the “femur bone density decrease (pQCT)” value ([4]; high dose 426 nmol, 1.0 mm)?
**A.** 20%

**Q.** What about the “femur bone density (pQCT) vs control” value ([4]; low dose 57 nmol) of the same substance?
**A.** no significant difference

**Q.** What about the “serum ALP concentration” value ([4]; low dose 57 nmol) of the same substance?
**A.** did not vary

**Q.** And the serum osteocalcin concentration ([4]; low dose 57 nmol)?
**A.** did not vary

**Q.** And the tibial trabecular number ([4]; low dose 57 nmol)?
**A.** no decrease was observed

**Q.** What about the “tibial unit bone mass” value ([4]; low dose 57 nmol) of the same substance?
**A.** no decrease was observed

**Q.** What about the “serum ALP concentration vs PBS+Sham group” value ([5]; GST-RANKL administration+OVX group) of the same substance?
**A.** tended to increase

**Q.** What about the “cortical bone mineral content decrease vs PBS+Sham group” value [5, 8] of the same substance?
**A.** 49%

**Q.** What about the “cortical bone thickness decrease vs PBS+Sham group” value [5, 8] of the same substance?
**A.** 49%

**Q.** What about the “total bone density vs PBS+Sham group” value ([5]; GST-RANKL administration+OVX group, no significant difference) of the same substance?
**A.** tended to decrease

**Q.** What about the “cancellous bone density (pQCT)” value ([5]; among the all groups) of the same substance?
**A.** no significant differences
